Laboratory results taken from BindingDB's records for doi:10.1007/s00044-008-9125-0 (n/a, 2009).
pIC50: −log10 of the molar value.

Assay: Inhibition of Bos taurus (bovine) heart cAMP-dependent phosphodiesterase assessed as inhibition of cyclic AMP to 5' AMP after 20 min by spectrophotometry

pIC50	SMILES
2.61	CCOc1ccc2nc(-n3c(-c4ccccc4)nc4ccccc4c3=O)sc2c1
2.68	O=c1c2ccccc2nc(-c2ccccc2)n1-c1nc2ccccc2s1
2.62	CCOc1cccc2sc(-n3c(-c4ccccc4)nc4ccccc4c3=O)nc12
2.62	Cc1cc(C)c2nc(-n3c(-c4ccccc4)nc4ccccc4c3=O)sc2c1
2.64	Cc1ccc2sc(-n3c(-c4ccccc4)nc4ccccc4c3=O)nc2c1
2.58	O=c1c2ccccc2nc(-c2ccccc2)n1-c1nc2ccc([N+](=O)[O-])cc2s1
2.69	Cc1ccc2sc(-n3c(-c4ccccc4)nc4c(Br)cc(Br)cc4c3=O)nc2c1
2.68	Cc1cc(C)c2nc(-n3c(-c4ccccc4)nc4c(Br)cc(Br)cc4c3=O)sc2c1
2.72	O=c1c2cc(Br)cc(Br)c2nc(-c2ccccc2)n1-c1nc2ccccc2s1
2.67	CCOc1ccc2sc(-n3c(-c4ccccc4)nc4c(Br)cc(Br)cc4c3=O)nc2c1
2.64	Cc1cccc2sc(-n3c(-c4ccccc4)nc4ccccc4c3=O)nc12
2.60	CCOc1ccc2sc(-n3c(-c4ccccc4)nc4ccccc4c3=O)nc2c1
2.66	CCOc1cccc2sc(-n3c(-c4ccccc4)nc4c(Br)cc(Br)cc4c3=O)nc12
2.62	COc1ccc2nc(-n3c(-c4ccccc4)nc4ccccc4c3=O)sc2c1
2.68	O=c1c2ccccc2nc(-c2ccccc2)n1-c1nc2cc(Cl)ccc2s1
2.63	COc1cccc2sc(-n3c(-c4ccccc4)nc4ccccc4c3=O)nc12
2.63	COc1ccc2sc(-n3c(-c4ccccc4)nc4ccccc4c3=O)nc2c1
2.69	Cc1cccc2sc(-n3c(-c4ccccc4)nc4c(Br)cc(Br)cc4c3=O)nc12
2.67	COc1ccc2nc(-n3c(-c4ccccc4)nc4c(Br)cc(Br)cc4c3=O)sc2c1
2.82	O=c1c2cc(Br)cc(Br)c2nc(-c2ccccc2)n1-c1nc2ccc([N+](=O)[O-])cc2s1
2.79	O=c1c2cc(Br)cc(Br)c2nc(-c2ccccc2)n1-c1nc2ccc(Br)cc2s1
2.67	CCOc1ccc2nc(-n3c(-c4ccccc4)nc4c(Br)cc(Br)cc4c3=O)sc2c1
2.68	COc1ccc2sc(-n3c(-c4ccccc4)nc4c(Br)cc(Br)cc4c3=O)nc2c1
2.67	O=c1c2ccccc2nc(-c2ccccc2)n1-c1nc2ccc(Br)cc2s1
2.68	COc1cccc2sc(-n3c(-c4ccccc4)nc4c(Br)cc(Br)cc4c3=O)nc12
2.84	O=c1c2cc(Br)cc(Br)c2nc(-c2ccccc2)n1-c1nc2cc(Cl)ccc2s1
